Each structure is given as a SMILES string. “Also recorded” adds a separate entry of the source. Like-named read-outs stand apart in the source and are kept apart here.

This is an account of results in article PMC9886975, “Ligand recognition mechanism of the human relaxin family peptide receptor 4 (RXFP4)” (Nature Communications, 2023).

Common to all, as to assay type: cell-based
One test concerns the target T1, RXFP4 E100A (Homo sapiens, UniProt Q8TDU9, E100A).
T1 construct: RXFP4(1-374)-; expressed in transfected cells; host or cells: HEK293T, transient (pCMV6)
The experiment in a line: cAMP accumulation, RXFP4 E100A. The following applies: HEK293T. An excerpt:
(§1) The full-length human RXFP4 (NCBI Reference Sequence: NM_181885.3) was cloned into a modified pFastBac vector (Invitrogen) with HA signal peptide to enhance receptor expression, followed by a 10× histidine tag and BRIL insertion at the N terminus. LgBiT subunit (Promega) was fused at the C terminus of RXFP4 connected by a 15-amino acid polypeptide linker. […] The engineered human Gαi2, Gβ1, bovine Gγ2, and scFv16 were cloned into the pFastBac vector (Invitrogen), respectively. For cAMP accumulation assay, human RXFP4 and RXFP3 (NCBI Reference Sequence: NM_016568.3) were cloned into pCMV6 constructs (OriGene Technologies). The mutant receptors were modified by site-directed mutagenesis in the setting of the WT constructs, with the primers designed by QuikChange Primer Design [QuickChange Primer Design (http://agilent.com.cn)] and carried out using Phanta Max Master (Vazyme). N-terminal Flag tag was added to both WT and mutant receptors for surface expression measurement. […]
(§2) CHO-K1 (ATCC, Cat#CCL-61) cells stably expressing human RXFP4 (hRXFP4-CHO) or RXFP3 (hRXFP3-CHO) were maintained in DMEM/F12 (Gibco) supplemented with 10% (v/v) fetal bovine serum (FBS) and 2 mM L-glutamine. […] Following 24 h culturing, the transfected cells were ready for detection.
(§3) Ligands were verified for their bioactivity in the beginning in hRXFP4-CHO, which were ready for use after 24 h culturing. […] The time-resolved fluorescence resonance energy transfer (TR-FRET) signals were detected by an EnVision multilabel plate reader (PerkinElmer) with the emission window ratio of 665 nm over 620 nm under 320 nm excitation. […]
(§4) Inhibition of forskolin-induced cAMP accumulation was performed in HEK293T cells transiently transfected with WT and mutant receptors. All the mutant constructs were modified by single-point mutation in the setting of the WT receptor. cAMP accumulation data were analyzed using a three-parameter logistic equation to determine pEC50 and Emax values. Emax values for mutants are defined as the window between the maximal response and vehicle control (no ligand) and expressed as a percentage of the WT. […]

The next test deals with human RXFP3. The experiment in a line: inhibition of forskolin-induced cAMP accumulation, WT RXFP3 (hRXFP3-CHO). The following applies: binding and cAMP assays, Fig. 3e, Supplementary Fig. 2e–g. As for the experimental part:
(§5) CHO-K1 (ATCC, Cat#CCL-61) cells stably expressing human RXFP4 (hRXFP4-CHO) or RXFP3 (hRXFP3-CHO) were maintained in DMEM/F12 (Gibco) supplemented with 10% (v/v) fetal bovine serum (FBS) and 2 mM L-glutamine. Human embryonic kidney 293 T cells containing SV40 large T-antigen (HEK293T, ATCC, Cat#64127316) were maintained in DMEM (Gibco) supplemented with 10% (v/v) FBS, 1 mM sodium pyruvate (Gibco), 100 units/mL penicillin and 100 μg/mL streptomycin at 37 °C in 5% CO2. For cAMP assays in mutants, HEK293T cells were seeded onto 6-well cell culture plates at a density of 7 × 10^5 cells per well. After overnight incubation, cells were transfected with WT or mutant receptors using Lipofectamine 3000 transfection reagent (Invitrogen). Following 24 h culturing, the transfected cells were ready for detection.
as §3
All functional study data were analyzed using GraphPad Prism 8.3 (GraphPad Software) and presented as means ± S.E.M. from at least three independent experiments. Dose-response curves were evaluated with a three-parameter logistic equation. […]
A general note: Changes in cAMP serve as a functional read-out for many G protein-coupled receptors.

The target of a further test is RXFP4 Q205H (Homo sapiens, UniProt Q8TDU9, Q205H). The experiment in a line: cAMP accumulation, RXFP4 Q205H. The note with it: HEK293T.
Sequence of RXFP4 Q205H (Q8TDU9 whole entry Q205H): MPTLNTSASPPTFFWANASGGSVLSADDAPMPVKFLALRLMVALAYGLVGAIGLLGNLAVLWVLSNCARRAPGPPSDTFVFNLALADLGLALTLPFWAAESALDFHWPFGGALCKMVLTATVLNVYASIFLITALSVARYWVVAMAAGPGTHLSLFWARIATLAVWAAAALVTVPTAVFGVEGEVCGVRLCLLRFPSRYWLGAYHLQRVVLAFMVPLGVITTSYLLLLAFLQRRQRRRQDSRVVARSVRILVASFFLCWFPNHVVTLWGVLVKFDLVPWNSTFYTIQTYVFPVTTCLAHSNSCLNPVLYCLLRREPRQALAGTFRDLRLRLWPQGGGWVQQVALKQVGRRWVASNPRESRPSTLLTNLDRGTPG
Description: as §1, §2, §3, §4

A further test deals with T2, RXFP4 R208A (Homo sapiens, UniProt Q8TDU9, R208A).
T2 construct: RXFP4(1-374)-; expressed in transfected cells; host or cells: HEK293T, transient (pCMV6)
T2 sequence (Q8TDU9 whole entry R208A): as the sequence (Q8TDU9 whole entry Q205H) above, with H205Q, R208A counted along it
The experiment in a line: cAMP accumulation, RXFP4 R208A. The following applies: HEK293T.
Description: as §1, §2, §3, §4

Another test deals with T3, human RXFP4 (Homo sapiens, UniProt Q8TDU9).
T3 construct: expressed in transfected cells
T3 sequence (Q8TDU9 whole entry): as the sequence (Q8TDU9 whole entry Q205H) above, with H205Q counted along it
The experiment in a line: inhibition of forskolin-induced cAMP accumulation, WT RXFP4 (hRXFP4-CHO). Here is the method: as §5
Ligands were verified for their bioactivity in the beginning in hRXFP4-CHO, which were ready for use after 24 h culturing. For assaying mutants, HEK293T cells were used 24 h post transfection. Cells were digested with 0.02% (w/v) EDTA and seeded onto 384-well microtiter plates at a density of 8 × 10^5 cells/mL in cAMP stimulation buffer [HBSS supplemented with 5 mM HEPES, 0.1% (w/v) bovine serum albumin (BSA) and 0.5 mM 3-isobutyl-1-methylxanthine]. The cells were stimulated with different concentrations of ligands plus 1.5 μM forskolin in RXFP4 and 4 μM forskolin in RXFP3. […] The time-resolved fluorescence resonance energy transfer (TR-FRET) signals were detected by an EnVision multilabel plate reader (PerkinElmer) with the emission window ratio of 665 nm over 620 nm under 320 nm excitation. […]
All functional study data were analyzed using GraphPad Prism 8.3 (GraphPad Software) and presented as means ± S.E.M. from at least three independent experiments. Dose-response curves were evaluated with a three-parameter logistic equation. The significance was determined with either a two-tailed Student’s t-test or one-way ANOVA with Dunnett’s multiple comparison test, and P < 0.05 was considered statistically significant.

The target of a further test is T4, RXFP4 W279A (Homo sapiens, UniProt Q8TDU9, W279A).
T4 construct: RXFP4(1-374)-; expressed in transfected cells; host or cells: HEK293T, transient (pCMV6)
T4 sequence (Q8TDU9 whole entry W279A): as the sequence (Q8TDU9 whole entry Q205H) above, with H205Q, W279A counted along it
The experiment in a line: cAMP accumulation, RXFP4 W279A.
Description: (§6) The full-length human RXFP4 (NCBI Reference Sequence: NM_181885.3) was cloned into a modified pFastBac vector (Invitrogen) with HA signal peptide to enhance receptor expression, followed by a 10× histidine tag and BRIL insertion at the N terminus. LgBiT subunit (Promega) was fused at the C terminus of RXFP4 connected by a 15-amino acid polypeptide linker. […] The engineered human Gαi2, Gβ1, bovine Gγ2, and scFv16 were cloned into the pFastBac vector (Invitrogen), respectively. For cAMP accumulation assay, human RXFP4 and RXFP3 (NCBI Reference Sequence: NM_016568.3) were cloned into pCMV6 constructs (OriGene Technologies). […]
as §2, §3

In another test the target is T5, RXFP4 L118S (Homo sapiens, UniProt Q8TDU9, L118S).
T5 construct: RXFP4(1-374)-; expressed in transfected cells; host or cells: HEK293T, transient (pCMV6)
T5 sequence (Q8TDU9 whole entry L118S): as the sequence (Q8TDU9 whole entry Q205H) above, with L118S, H205Q counted along it
In words: cAMP accumulation, RXFP4 L118S. The note with it: HEK293T.
Description: as §6, §2, §3

Another test has as its target T6, RXFP4 V122S (Homo sapiens, UniProt Q8TDU9, V122S).
T6 construct: RXFP4(1-374)-; expressed in transfected cells; host or cells: HEK293T, transient (pCMV6)
The experiment in a line: cAMP accumulation, RXFP4 V122S. The note with it: HEK293T, mean ± S.E.M.
Description: as §6, §2, §3

The target of the next test is T7, RXFP3 WT (Homo sapiens, UniProt Q9NSD7).
T7 construct: RXFP3(1-469)-; expressed in transfected cells; host or cells: HEK293T, transient (pCMV6)
T7 sequence (Q9NSD7 whole entry): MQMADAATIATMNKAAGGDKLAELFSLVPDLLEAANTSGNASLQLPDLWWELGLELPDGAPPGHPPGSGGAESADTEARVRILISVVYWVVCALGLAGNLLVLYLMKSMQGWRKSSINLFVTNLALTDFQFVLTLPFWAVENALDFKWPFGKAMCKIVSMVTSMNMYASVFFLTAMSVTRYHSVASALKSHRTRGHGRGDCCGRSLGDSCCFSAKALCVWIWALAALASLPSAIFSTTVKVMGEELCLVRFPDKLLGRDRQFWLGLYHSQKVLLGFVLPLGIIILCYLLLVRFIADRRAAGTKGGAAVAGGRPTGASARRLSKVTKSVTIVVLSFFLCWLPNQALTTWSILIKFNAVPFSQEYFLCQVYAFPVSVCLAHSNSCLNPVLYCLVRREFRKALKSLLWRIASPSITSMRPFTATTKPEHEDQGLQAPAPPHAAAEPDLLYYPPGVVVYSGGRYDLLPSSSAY
In words: cAMP accumulation, WT RXFP3 (HEK293T). The note with it: WT and all the five RXFP3 mutants.
Description: as §6, §2, §3

For another test, the target named is T8, RXFP4 L118A+V122A (Homo sapiens, UniProt Q8TDU9, L118A/V122A).
T8 construct: RXFP4(1-374)-; expressed in transfected cells; host or cells: HEK293T, transient (pCMV6)
T8 sequence (Q8TDU9 whole entry L118A/V122A): as the sequence (Q8TDU9 whole entry Q205H) above, with L118A, V122A, H205Q counted along it
The experiment in a line: cAMP accumulation, RXFP4 L118A+V122A. The note with it: HEK293T.
Description: as §6, §2, §3

Another test concerns the target T9, RXFP4 Y284A (Homo sapiens, UniProt Q8TDU9, Y284A).
T9 construct: RXFP4(1-374)-; expressed in transfected cells; host or cells: HEK293T, transient (pCMV6)
In words: cAMP accumulation, RXFP4 Y284A.
Description: as §6, §2, §3

T1 sequence (Q8TDU9 whole entry E100A): as the sequence (Q8TDU9 whole entry Q205H) above, with E100A, H205Q counted along it
T6 sequence (Q8TDU9 whole entry V122S): as the sequence (Q8TDU9 whole entry Q205H) above, with V122S, H205Q counted along it
T9 sequence (Q8TDU9 whole entry Y284A): as the sequence (Q8TDU9 whole entry Q205H) above, with H205Q, Y284A counted along it

Consider `CCOc1cc2c(cc1OC)CCN(C(=O)N1CCOCC1)[C@H]2CCc1c[nH]c2ccc(OC)cc12` [DC591053, (S)-(7-ethoxy-6-methoxy-1-(2-(5-methoxy-1H-indol-3-yl)ethyl)−3,4-dihydroisoquinolin-2(1H)-yl)(morpholino)methanone], for which the “cAMP response” value at RXFP4 E100A is given as “unchanged agonism”. Besides, the EC50 was 107 nM at RXFP4 E100A (1.5 μM forskolin, mean ± S.E.M., N.A., not active); 676 nM at RXFP4 Q205H (1.5 μM forskolin, mean ± S.E.M., n = 3); 263 nM on RXFP4 R208A (1.5 μM forskolin, mean ± S.E.M., n = 3, N.A., not active); 57.5 nM on human RXFP4 (stably-transfected CHO-K1, 1.5 μM forskolin, 40 min RT, TR-FRET, mean ± S.E.M., n = 3, read-out: pEC50 (converted)). Besides, the figures for the Emax at RXFP4 E100A (mean ± S.E.M.), on RXFP4 Q205H (mean ± S.E.M.) and at RXFP4 R208A (mean ± S.E.M.) were 79.27 ± 6.72 % WT, 25.10 ± 6.36 % WT and 52.09 ± 4.26 % WT, respectively. The “cross-reactivity with RXFP3” value with human RXFP3 is listed as “neither reacted with related RXFP3; also recorded: without observable cross-reactivity”. For the same compound, the “response” value at RXFP4 Q205H is given as “more profound reduction for DC591053 than compound 4”. Also, at RXFP4 R208A, the “decrease of potency vs WT” value is reported as 7.6 fold. Besides, at human RXFP4 (stably-transfected CHO-K1), the “agonism” value is given as “full agonism”.

As for `CC[C@H](C)[C@@H]1NC(=O)[C@H](Cc2ccc(O)cc2)NC(=O)[C@H]([C@@H](C)CC)NC(=O)[C@H](C(C)C)NC(=O)[C@H]([C@@H](C)O)NC(=O)[C@H](CCCNC(=N)N)NC(=O)[C@H]([C@@H](C)CC)NC(=O)[C@H](Cc2ccc(O)cc2)NC(=O)[C@H](CCC(=O)O)NC(=O)[C@H](CC(C)C)NC(=O)CNC(=O)[C@@H](NC(=O)[C@H](CC(C)C)NC(=O)[C@H](CCCNC(=N)N)NC(=O)[C@@H](NC(=O)[C@H](CO)NC(=O)[C@H](CCC(=O)O)NC(=O)[C@@H](N)CCCCN)C(C)C)CSSC[C@@H]2NC(=O)[C@@H](NC(=O)[C@H](CC(C)C)NC(=O)[C@@H](NC(=O)[C@H](CCC(N)=O)NC(=O)[C@H](CC(C)C)NC(=O)[C@H](CC(=O)O)NC(=O)[C@@H](N)CCC(N)=O)[C@@H](C)O)CSSC[C@H](NC(=O)CNC(=O)[C@H](CC(=O)O)NC(=O)[C@H]([C@@H](C)O)NC2=O)C(=O)N[C@@H](CO)C(=O)N[C@@H](CCSC)C(=O)N[C@@H]([C@@H](C)O)C(=O)N[C@@H](CC(=O)O)C(=O)N[C@@H](CC(C)C)C(=O)N[C@@H](CO)C(=O)N[C@@H](C)C(=O)N[C@@H](CC(C)C)C(=O)N[C@H](C(=O)O)CSSC[C@@H](C(=O)N[C@@H](C)C(=O)N[C@@H](CO)C(=O)N[C@@H](CO)C(=O)N[C@@H](CCCNC(=N)N)C(=O)N[C@@H](Cc2c[nH]c3ccccc23)C(=O)O)NC1=O` [INSL5, insulin-like peptide 5], the EC50 at RXFP4 W279A is 1.86 nM; on RXFP4 V122S (1.5 μM forskolin, n = 3), 1.02 nM; on human RXFP4, 1.58 nM; at RXFP4 Y284A it was 1.82 nM. The Emax is listed as 43.30 ± 3.29 % WT at RXFP4 W279A (HEK293T, mean ± S.E.M.); 45.95 ± 4.97 % WT at RXFP4 V122S; 49.25 ± 4.06 % WT on RXFP4 Y284A (HEK293T, mean ± S.E.M.). The “response” value at RXFP4 L118S, on RXFP3 WT and on RXFP4 L118A+V122A was “inactive” each time.
